Where two headings read alike, the source gives them in different places.
Experiments:
U-2 OS = experiment: Monolayer cell culture IC50 (CellTiter-Glo viability), U-2 OS; format: cell-based
Experimental: (§1) Cancer cell lines listed in Table 1 were subjected for testing anti-cancer potency or the half maximal inhibitory concentration (IC50) of the D-Actinomycin (DACT) molecular complexes.
(§2) The SK-ES-1, U-2 OS, and SAOS-2 cells were cultured in a growth medium that is ATCC-formulated McCoy's 5a Medium Modified, Catalog No. 30-2007. The PC-3, PANC-1, SK-Mel-5, A549, H460, and H1299 were cultured in a growth medium that is ATCC-formulated Dulbecco's Modified Eagle's Medium (DMEM), Catalog No. 30-2002. The cells were seeded on 96-well microtiter plates with 3500 cells per well and cultured in an incubator (Model 3120, Thermo Scientific, USA) with a constant temperature at 37° C. and 5% carbon dioxide (CO2) gas for 24 hours.
(§3) The new DACT-molecular complexes were made into a series with concentration of 200 nM to 40 nM, 8 nM, 1.6 nM, 0.32 nM, and 0.064 nM. 100 μl of each solution was then added into each well to bring out the final concentration of the drug treatment at 100 nM, 20 nM, 4 nM, 0.8 nM, 0.16 nM, or 0.032 nM, respectively.
(§4) The treated cells in the 96 well plate was then further cultured at the same conditions for 72 hours and then subjected for a final cell viability measurement. The measurement used a homogeneous method to determine the number of metabolically active cells presented in each of treatments. A testing reagent for the measurement is a mixture solution of the CellTiter-Glo® 2.0 reagent (CTG, Promega Cat #G9243, USA) and growth medium in 1:1 ratio in this respect.
(§5) The 96-well plate with the new molecular complex treated cells was taken out from incubator after the 72 hours of incubation, and the treatment solution in each well was removed using a multichannel pipette, and 100 μl of the testing reagent were added into each well. The plate was then placed on a plate shaker for 15 min. The plate was covered with a piece of aluminum foil to protect the CTG luminescence during the shaking time.
(§6) Then 90 μl of the 100 μl testing reagent were transferred into an opaque-walled 96-well plate for the CTG luminescence reading on a plate reader (SynergyH4 Hybrid Reader, Biotek, USA). The luminescence intensity of each treatment was positively correlated with the number of cells survived during the treatments.
(§7) All the treatment data was normalized by comparing with the control samples that had only growth medium without any molecular complexes. The half maximal inhibitory concentration (IC50) data was calculated using the nonlinear regression model and dose-responses (inhibition) curve built in the software. Each of treatments was performed in three replications each time and repeated three times for validation. The IC50 average […] (Avg) and standard deviation (STDV) were calculated based on the three replications.

PC-3 = experiment: Monolayer cell culture IC50 (CellTiter-Glo viability), PC-3; format: cell-based
Experimental: as §1, §2, §3, §4, §5, §6, §7

[1] = Accelerated stability studies (PXRD physical form stability); format: physicochemical; details: accelerated conditions 75% humidity and 40° C., one year, by PXRD
Experimental: Stability studies of the DACT novel forms were conducted using accelerated conditions (75% humidity and 40° C.) of which are obvious to the artisan in the field, for more than one year. […] Selected data of the novel complexes of DACT:methylparaben, propylparaben and diphenic acid proves this point.

SK-Mel-5 = experiment: Monolayer cell culture IC50 (CellTiter-Glo viability), SK-Mel-5; format: cell-based
Experimental: as §1, §2, §3, §4, §5, §6, §7

PANC-1 = experiment: Monolayer cell culture IC50 (CellTiter-Glo viability), PANC-1; format: cell-based
Experimental: as §1, §2, §3, §4, §5, §6, §7

SK-ES-1 = experiment: Monolayer cell culture IC50 (CellTiter-Glo viability), SK-ES-1; format: cell-based, human; details: Sarcoma, SK-ES-1, monolayer, 72 hours treatment, average of three replications
Experimental: as §1, §2, §3, §4, §5, §6, §7

[2] = in vivo; cited from earlier work
H1299 = experiment: Monolayer cell culture IC50 (CellTiter-Glo viability), H1299; format: cell-based; details: Homo sapiens, NCI-H1299, Lung, 72 hours treatment, average of three replications
Experimental: as §1, §2, §3, §4, §5, §6, §7

[3] = in vivo; cited from earlier work; remark: listed apart in the source
H460 = experiment: Monolayer cell culture IC50 (CellTiter-Glo viability), H460; format: cell-based; details: Homo sapiens, NCI-H460, Lung, 72 hours treatment, average of three replications
Experimental: as §1, §2, §3, §4, §5, §6, §7

A549 = experiment: Monolayer cell culture IC50 (CellTiter-Glo viability), A549; format: cell-based; details: Homo sapiens, Lung, 72 hours treatment, average of three replications
Experimental: as §1, §2, §3, §4, §5, §6, §7

[4] = Sarcoma, U-2 OS, monolayer, 72 hours treatment, Test I, average of three replications, read-out: IC50 Test (I) Avg
[5] = Sarcoma, U-2 OS, monolayer, 72 hours treatment, Test II, average of three replications, read-out: IC50 Test (II) Avg
[6] = Sarcoma, U-2 OS, monolayer, 72 hours treatment, Test III, average of three replications, read-out: IC50 Test (III) Avg
[7] = Prostate, PC-3, monolayer, 72 hours treatment, Test I, average of three replications, read-out: IC50 Test (I) Avg
[8] = Prostate, PC-3, monolayer, 72 hours treatment, Test II, average of three replications, read-out: IC50 Test (II) Avg
[9] = Prostate, PC-3, monolayer, 72 hours treatment, Test III, average of three replications, read-out: IC50 Test (III) Avg
[10] = Skin, SK-Mel-5, monolayer, 72 hours treatment, Test I, average of three replications, read-out: IC50 Test (I) Avg
[11] = Skin, SK-Mel-5, monolayer, 72 hours treatment, Test II, average of three replications, read-out: IC50 Test (II) Avg
[12] = Skin, SK-Mel-5, monolayer, 72 hours treatment, Test III, average of three replications, read-out: IC50 Test (III) Avg
[13] = Pancreatic, PANC-1, monolayer, 72 hours treatment, Test I, average of three replications, read-out: IC50 Test (I) Avg
[14] = Pancreatic, PANC-1, monolayer, 72 hours treatment, Test II, average of three replications, read-out: IC50 Test (II) Avg
[15] = Pancreatic, PANC-1, monolayer, 72 hours treatment, Test III, average of three replications, read-out: IC50 Test (III) Avg
[16] = Test I, read-out: IC50 Test (I) Avg
[17] = Test II, read-out: IC50 Test (II) Avg
[18] = Test III, read-out: IC50 Test (III) Avg

Which results are given for `Cc1c2oc3c(C)ccc(C(=O)NC4C(=O)NC(C(C)C)C(=O)N5CCCC5C(=O)N(C)CC(=O)N(C)C(C(C)C)C(=O)OC4C)c3nc-2c(C(=O)NC2C(=O)NC(C(C)C)C(=O)N3CCCC3C(=O)N(C)CC(=O)N(C)C(C(C)C)C(=O)OC2C)c(N)c1=O.O=C(O)c1ccccc1-c1ccccc1C(=O)O` (centres unmarked) [DACT-diphenic Acid]?
IC50 (U-2 OS; [4]): 4.34 nM; IC50 (U-2 OS; [5]): 4.3 nM; IC50 (U-2 OS; [6]): 2.69 nM; IC50 (PC-3; [7]): 6.38 nM; IC50 (PC-3; [8]): 5.89 nM; IC50 (PC-3; [9]): 6.55 nM; physical form stability [1]: stable; IC50 (SK-Mel-5; [10]): 0.42 nM; IC50 (SK-Mel-5; [11]): 0.32 nM; IC50 (SK-Mel-5; [12]): 2.3 nM; IC50 (PANC-1; [13]): 5.31 nM; IC50 (PANC-1; [14]): 3.25 nM; IC50 (PANC-1; [15]): 3.83 nM

Which IC50 (SK-ES-1; [16]) does the source give for `COC(=O)c1ccc(O)cc1.Cc1c2oc3c(C)ccc(C(=O)NC4C(=O)NC(C(C)C)C(=O)N5CCCC5C(=O)N(C)CC(=O)N(C)C(C(C)C)C(=O)OC4C)c3nc-2c(C(=O)NC2C(=O)NC(C(C)C)C(=O)N3CCCC3C(=O)N(C)CC(=O)N(C)C(C(C)C)C(=O)OC2C)c(N)c1=O` (centres unmarked) [DACT-methylparaben] here?
The IC50 was 0.71 nM.

And the IC50 (SK-ES-1; [17])?
The IC50 was 0.51 nM.

And the IC50 (SK-ES-1; [18])?
Its IC50 is 0.58 nM.

And the IC50 (U-2 OS; [4])?
Its IC50 is 4.3 nM.

And the IC50 (U-2 OS; [5])?
The IC50 was 4.38 nM.

What about the IC50 (U-2 OS; [6]) of the same compound?
Its IC50 is 2.27 nM.

What about the IC50 (PC-3; [7]) of the same compound?
The IC50 was 7.1 nM.

And the IC50 (PC-3; [8])?
Its IC50 is 5.53 nM.

What about the IC50 (PC-3; [9]) of the same compound?
Its IC50 is 6.15 nM.

And the physical form stability [1]?
Its physical form stability is “stable”.

What about the IC50 (SK-Mel-5; [10]) of the same compound?
The IC50 was 0.36 nM.

What about the IC50 (SK-Mel-5; [11]) of the same compound?
The IC50 was 0.37 nM.

And the IC50 (SK-Mel-5; [12])?
Its IC50 is 2.3 nM.

And the IC50 (PANC-1; [13])?
The IC50 was 4.15 nM.

And the IC50 (PANC-1; [14])?
The IC50 was 2.66 nM.

And the IC50 (PANC-1; [15])?
Its IC50 is 3.48 nM.

Which physical form stability [1] does the source give for `Cc1c2oc3c(C)ccc(C(=O)NC4C(=O)NC(C(C)C)C(=O)N5CCCC5C(=O)N(C)CC(=O)N(C)C(C(C)C)C(=O)OC4C)c3nc-2c(C(=O)NC2C(=O)NC(C(C)C)C(=O)N3CCCC3C(=O)N(C)CC(=O)N(C)C(C(C)C)C(=O)OC2C)c(N)c1=O.NC(CS)C(=O)O` (racemic) [DACT:DL-cysteine] here?
Its physical form stability is “shown physical stability”.

With `Cc1c2oc3c(C)ccc(C(=O)N[C@@H]4C(=O)N[C@H](C(C)C)C(=O)N5CCC[C@H]5C(=O)N(C)CC(=O)N(C)[C@@H](C(C)C)C(=O)O[C@@H]4C)c3nc-2c(C(=O)N[C@@H]2C(=O)N[C@H](C(C)C)C(=O)N3CCC[C@H]3C(=O)N(C)CC(=O)N(C)[C@@H](C(C)C)C(=O)O[C@@H]2C)c(N)c1=O` [DACT, reference compound] as the compound, how does the irritation to tissues [2] read?
Its irritation to tissues is “extremely irritating to tissues”.

And the IC50 (H1299; [16])?
Its IC50 is 1.78 nM.

What about the IC50 (H1299; [17]) of the same compound?
Its IC50 is 1.15 nM.

What about the IC50 (H1299; [18]) of the same compound?
The IC50 was 1.28 nM.

What about the IC50 (SK-ES-1; Homo sapiens, SK-ES1, Test I, read-out: IC50 Test (I) Avg) of the same compound?
The IC50 was 1.03 nM.

And the IC50 (SK-ES-1; Homo sapiens, SK-ES1, Test II, read-out: IC50 Test (II) Avg)?
Its IC50 is 0.56 nM.

What about the IC50 (SK-ES-1; Homo sapiens, SK-ES1, Test III, read-out: IC50 Test (III) Avg) of the same compound?
Its IC50 is 0.63 nM.

And the “absorption from the GI tract” value [3]?
Its value is “poorly absorbed”.

What about the IC50 (U-2 OS; Homo sapiens, U2OS, 72 h, read-out: IC50 Test (I) Avg (nM)) of the same compound?
The IC50 was 5.29 nM.

What about the IC50 (U-2 OS; Homo sapiens, U2OS, 72 h, read-out: IC50 Test (II) Avg (nM)) of the same compound?
The IC50 was 5.63 nM.

What about the IC50 (U-2 OS; Homo sapiens, U2OS, 72 h, read-out: IC50 Test (III) Avg (nM)) of the same compound?
Its IC50 is 2.62 nM.

And the IC50 (H460; [16])?
The IC50 was 0.35 nM.

And the IC50 (H460; [17])?
The IC50 was 0.35 nM.

And the IC50 (H460; [18])?
The IC50 was 0.35 nM.

What about the IC50 (A549; [16]) of the same compound?
Its IC50 is 1.64 nM.

What about the IC50 (A549; [17]) of the same compound?
The IC50 was 1.85 nM.

What about the IC50 (A549; [18]) of the same compound?
Its IC50 is 1.64 nM.

What about the IC50 (PC-3; Homo sapiens, PC-3, 72 h, read-out: IC50 Test (I) Avg (nM)) of the same compound?
The IC50 was 8.81 nM.

And the IC50 (PC-3; Homo sapiens, PC-3, 72 h, read-out: IC50 Test (II) Avg (nM))?
Its IC50 is 7 nM.

And the IC50 (PC-3; Homo sapiens, PC-3, 72 h, read-out: IC50 Test (III) Avg (nM))?
The IC50 was 7.28 nM.

What about the IC50 (SK-Mel-5; Homo sapiens, SK-MEL-5, 72 h, read-out: IC50 Test (I) Avg (nM)) of the same compound?
The IC50 was 0.61 nM.

What about the IC50 (SK-Mel-5; Homo sapiens, SK-MEL-5, 72 h, read-out: IC50 Test (II) Avg (nM)) of the same compound?
The IC50 was 0.5 nM.

What about the IC50 (SK-Mel-5; Homo sapiens, SK-MEL-5, 72 h, read-out: IC50 Test (III) Avg (nM)) of the same compound?
The IC50 was 2.9 nM.

What about the IC50 (PANC-1; Homo sapiens, PANC-1, 72 h, read-out: IC50 Test (I) Avg (nM)) of the same compound?
Its IC50 is 5.68 nM.

What about the IC50 (PANC-1; Homo sapiens, PANC-1, 72 h, read-out: IC50 Test (II) Avg (nM)) of the same compound?
Its IC50 is 4.56 nM.

And the IC50 (PANC-1; Homo sapiens, PANC-1, 72 h, read-out: IC50 Test (III) Avg (nM))?
Its IC50 is 4.74 nM.

From patent publication US11319311B2, “Crystalline forms of Actinomycin D for treatment of cancer” (TRANSGENEX NANOBIOTECH, INC., priority 2018, dated 2022)
